Assay results: patent US20230414634A1, “METHODS FOR TREATING CHOLESTATIC PRURITUS” (GlaxoSmithKline Intellectual Property (No.2) Limited, priority 2020, published 2023)

How the values were obtained:
[1] = test system: PBC patients with pruritus; assay: Phase 2a crossover clinical study BAT117213 (NCT01899703) of GSK672 versus placebo; type: in vivo, human
Experimental: A Phase 2a clinical study (NCT01899703; GSK study BAT117213) was carried out to investigate the safety, tolerability, and effect of repeat doses of GSK672 administration in patients with cholestatic pruritus in Primary Biliary Cholangitis (PBC). The results of this study have been summarized and published on clintrials.gov (NCT01899703).
A phase 2 double-blind, randomised, placebo controlled, crossover trial in PBC patients with pruritus was conducted at two specialist PBC centres in the United Kingdom between March 2014 and November 2015. Subjects received oral 45 to 90 mg GSK672 (45 mg BID for Day 1 to 3 and 90 mg BID for Days 4 to 14) and placebo twice daily for 14 days, in a crossover sequence.
The three different itch rating scales were employed: 10-point NRS, 5D Itch Scale and PBC-40.
The primary end point was safety (measured by clinical and laboratory assessments and adverse events (AEs)) and tolerability. Secondary end points were: i) changes in pruritus scores from baseline measured using a 0 to 10 numerical rating scale (NRS) completed twice daily and PBC-40 itch domain scores and 5-D itch scale and ii) changes in serum levels of total bile acids and C4. Serum levels of ATX activity and FGF-19 were measured at baseline and at the end of each treatment period.
An analysis was carried out as to the effect of 90 mg BID. No analysis was carried out as to the effect of 45 mg BID as this dose was administered for Days 1 to 3 in order to ease patients onto the higher 90 mg BID dose.

[2] = test system: patients with PBC and cholestatic pruritus; assay: GLIMMER Phase 2b study: safety and tolerability (adverse events, Safety population); type: in vivo, human
Excerpt: Secondary and exploratory endpoints: itch efficacy, quality of life (PBC-40) and pharmacodynamic biomarkers, and safety and tolerability.
In the GLIMMER trial, once daily dosing (QD) was expected to be the optimum dosing regimen. The rationale for QD was as follows: i) it was considered optimal to administer one dose in the morning alone, avoiding administering a dose at night in order to minimise the known side effect of diarrhoea during the night, and ii) one dose per day is generally expected to result in a better patient compliance. The tablet sizes employed in the trial were 10 mg and 45 mg which allowed administration of different dose sizes by combining tablets.
As illustrated in FIG. 1(i), the initial dose sizes were: placebo, 20 mg QD, 90 mg QD and 180 mg QD. Also included was a dose size of 90 mg BID which was evaluated in the earlier Phase 2a study. […] This warranted a further investigation of twice daily dosing. It was decided to add a new 40 mg BID group, and to cease the 20 mg QD dose.

CCCC[C@]1(CC)CS(=O)(=O)c2cc(CNC(CC(=O)O)CC(=O)O)c(OC)cc2[C@@H](c2ccccc2)N1 [linerixibat]
pruritus severity compared to placebo (NRS, 5D Itch Scale and PBC-40) ([1]; 90 mg BID, 22 subjects with PBC pruritus): statistically significant decrease
reduction in itch intensity as compared to placebo ([1]; 90 mg BID, 14 day crossover): 71%
itch intensity, PBC-40 itch domain, compared to placebo ([1]; 90 mg BID, 95% CI: −0.94 to −0.24): −0.59
itch intensity, 5-D itch, compared to placebo ([1]; 90 mg BID, 95% CI: −6.60 to −2.49): −4.55
itch intensity as measured by NRS, compared to placebo ([1]; 90 mg BID, 95%CI: −2.48 to −0.68): −1.58
fatigue, sleep disturbance and overall disability compared to placebo ([1]; human, in vivo): Decreases
time at which reduction of pruritus severity occurred ([1]; human, in vivo): within the first week
tolerability ([1]; two weeks of oral twice daily 90 mg): well tolerated
Abdominal distension: number of patients ([2]; 20 mg QD (N = 14)): 0
Abdominal pain lower: % of patients ([2]; 20 mg QD (N = 14)): (7%)
Abdominal pain lower: number of patients ([2]; 20 mg QD (N = 14)): 1
Abdominal pain upper: % of patients ([2]; 20 mg QD (N = 14)): (14%)
Abdominal pain upper: number of patients ([2]; 20 mg QD (N = 14)): 2
Abdominal pain: % of patients ([2]; 20 mg QD (N = 14)): (14%)
Abdominal pain: number of patients ([2]; 20 mg QD (N = 14)): 2
Adverse events Main Study, ANY EVENT: % of patients ([2]; 20 mg QD (N = 14)): (57%)
Adverse events Main Study, ANY EVENT: number of patients ([2]; 20 mg QD (N = 14)): 8
Diarrhoea: % of patients ([2]; 20 mg QD (N = 14)): (36%)
Diarrhoea: number of patients ([2]; 20 mg QD (N = 14)): 5
Dry mouth: % of patients ([2]; 20 mg QD (N = 14)): (14%)
Dry mouth: number of patients ([2]; 20 mg QD (N = 14)): 2
Flatulence: % of patients ([2]; 20 mg QD (N = 14)): (7%)
Flatulence: number of patients ([2]; 20 mg QD (N = 14)): 1
Gastrointestinal disorders, Any event: % of patients ([2]; 20 mg QD (N = 14)): (50%)
Gastrointestinal disorders, Any event: number of patients ([2]; 20 mg QD (N = 14)): 7
Gastrooesophageal reflux disease: % of patients ([2]; 20 mg QD (N = 14)): (7%)
Gastrooesophageal reflux disease: number of patients ([2]; 20 mg QD (N = 14)): 1
Nausea: % of patients ([2]; 20 mg QD (N = 14)): (7%)
Nausea: number of patients ([2]; 20 mg QD (N = 14)): 1
Vomiting: % of patients ([2]; 20 mg QD (N = 14)): (7%)
Vomiting: number of patients ([2]; 20 mg QD (N = 14)): 1
gastrointestinal tolerability data ([2]; 40 mg BID versus higher doses): favored 40 mg BID dosing over higher doses
Abdominal distension: number of patients ([2]; 90 mg BID (N = 13)): 0
Abdominal pain upper: number of patients ([2]; 90 mg BID (N = 13)): 0
Abdominal pain: number of patients ([2]; 90 mg BID (N = 13)): 1
Adverse events Main Study, ANY EVENT: % of patients ([2]; 90 mg BID (N = 13)): (69%)
Adverse events Main Study, ANY EVENT: number of patients ([2]; 90 mg BID (N = 13)): 9
Diarrhoea: number of patients ([2]; 90 mg BID (N = 13)): 5
Dry mouth: number of patients ([2]; 90 mg BID (N = 13)): 0
Flatulence: number of patients ([2]; 90 mg BID (N = 13)): 0
Gastrointestinal disorders, Any event: number of patients ([2]; 90 mg BID (N = 13)): 5
Gastrooesophageal reflux disease: number of patients ([2]; 90 mg BID (N = 13)): 0
Nausea: % of patients ([2]; 90 mg BID (N = 13)): (15%)
Nausea: number of patients ([2]; 90 mg BID (N = 13)): 2
Vomiting: % of patients ([2]; 90 mg BID (N = 13)): (8%)
Vomiting: number of patients ([2]; 90 mg BID (N = 13)): 1
tolerability at interim analysis ([2]; 90 mg BID versus 180 mg QD): better tolerated than 180 mg QD
Abdominal distension: % of patients ([2]; 90 mg QD (N = 12)): (8%)
Abdominal distension: number of patients ([2]; 90 mg QD (N = 12)): 1
Abdominal pain lower: % of patients ([2]; 90 mg QD (N = 12)): (8%)
Abdominal pain lower: number of patients ([2]; 90 mg QD (N = 12)): 1
Abdominal pain: % of patients ([2]; 90 mg QD (N = 12)): (8%)
Abdominal pain: number of patients ([2]; 90 mg QD (N = 12)): 1
Adverse events Main Study, ANY EVENT: % of patients ([2]; 90 mg QD (N = 12)): (75%)
Adverse events Main Study, ANY EVENT: number of patients ([2]; 90 mg QD (N = 12)): 9
Diarrhoea: % of patients ([2]; 90 mg QD (N = 12)): (50%)
Diarrhoea: number of patients ([2]; 90 mg QD (N = 12)): 6
Dry mouth: % of patients ([2]; 90 mg QD (N = 12)): (8%)
Dry mouth: number of patients ([2]; 90 mg QD (N = 12)): 1
Flatulence: number of patients ([2]; 90 mg QD (N = 12)): 0
Gastrointestinal disorders, Any event: % of patients ([2]; 90 mg QD (N = 12)): (50%)
Gastrointestinal disorders, Any event: number of patients ([2]; 90 mg QD (N = 12)): 6
Gastrooesophageal reflux disease: number of patients ([2]; 90 mg QD (N = 12)): 0
Nausea: number of patients ([2]; 90 mg QD (N = 12)): 0
Vomiting: number of patients ([2]; 90 mg QD (N = 12)): 0
Abdominal distension: % of patients ([2]; 180 mg QD (N = 17)): (6%)
Abdominal pain lower: number of patients ([2]; 180 mg QD (N = 17)): 0
Abdominal pain upper: % of patients ([2]; 180 mg QD (N = 17)): (6%)
Abdominal pain: number of patients ([2]; 180 mg QD (N = 17)): 5
Adverse events Main Study, ANY EVENT: % of patients ([2]; 180 mg QD (N = 17)): (82%)
Adverse events Main Study, ANY EVENT: number of patients ([2]; 180 mg QD (N = 17)): 14
Diarrhoea: number of patients ([2]; 180 mg QD (N = 17)): 10
Dry mouth: number of patients ([2]; 180 mg QD (N = 17)): 0
Flatulence: % of patients ([2]; 180 mg QD (N = 17)): (6%)
Gastrointestinal disorders, Any event: number of patients ([2]; 180 mg QD (N = 17)): 14
Gastrooesophageal reflux disease: number of patients ([2]; 180 mg QD (N = 17)): 0
Nausea: % of patients ([2]; 180 mg QD (N = 17)): (6%)
Nausea: number of patients ([2]; 180 mg QD (N = 17)): 1
Vomiting: % of patients ([2]; 180 mg QD (N = 17)): (12%)
Vomiting: number of patients ([2]; 180 mg QD (N = 17)): 2
most common AE ([2]; in vivo): diarrhea
